For the assay, the system named is leaf rust of wheat "Puccinia recondita". In words: Biotest: curative control of leaf rust of wheat (fungicidal efficacy of epoxiconazole with adjuvant). Particulars: 50 ppm epoxiconazole without adjuvant; sprayed 2 days after inoculation; rated after 10 days; wheat seedlings, greenhouse. The format is in vivo, Puccinia recondita on wheat seedlings "Kanzler". As for the experimental part:
125 g/l epoxiconazole were ground together with in each case 20 g/l dispersant (Atlas G 5000^1, Synperonic A^1) and 50 g/l propylene glycol in aqueous medium in a stirred-ball mill (dyno-mill) until a particle size of 80% <2 μm was reached. To the mixture were added 3 g/l per liter antifoam, for example Rhodorsil 426^2, 3 g/l thickener, for example Rhodopol 23^2, and a biocide, for example Acticide MBS^3. The respective adjuvant, in aqueous solution or in a solvent, for example Solvesso, was stirred into this mixture, so that the final concentration of the formulation is composed of 62.5 g/l epoxiconazole and 125 g/l adjuvant.
Biotest (curative control of leaf rust of wheat):
Leaves of wheat seedlings of the species “Kanzler” which had been grown in pots were dusted, in the two-leaf stage, with spores of leaf rust of wheat “Puccinia recondita” and incubated for 2 days in the greenhouse at high atmospheric humidity. In fully automated spray cabins, the plants were then sprayed with the formulations which comprised the active ingredients and adjuvants specified hereinbelow. The spray mixtures comprised 50 ppm epoxiconazole and 100 ppm adjuvant. The ratio active ingredient to adjuvant was, accordingly, 1:2. […] After 10 days, the extent of the leaf rust disease was determined visually as disease percent of the total leaf area. 3 pots were evaluated for each combination.

We go through one compound from patent US20110039904A1, “Alcohol alkoxylates, agents comprising the same and use of the alcohol alkoxylates as adjuvants in the agrochemical field” (BASF SE, priority 2008, published 2011).

The structures appear in SMILES notation.

For `Fc1ccc([C@]2(Cn3cncn3)O[C@H]2c2ccccc2Cl)cc1` (racemic) [Epoxiconazole, epoxiconazole], the “% infection (leaf rust disease percent of the total leaf area, determined visually)” value turned out to be 23%.
